Counter-ions that a name gives are not always drawn. Where no end group is shown, it is not given here.
What was measured:
HTR1B = HTR1B (Homo sapiens, UniProt P28222); test: LANCE Ultra cAMP assay
AT1 = target: T1, AT1 (Homo sapiens, UniProt P30556); test: GPCR calcium flux assay; type: cell-based; conditions: read-out: Known agonists EC50
T1 construct: Pharmaron (Beijing, China), contract laboratory

HTR2B = target: T2, HTR2B (Homo sapiens, UniProt P41595); test: GPCR calcium flux assay; type: cell-based
T2 construct: Pharmaron (Beijing, China), contract laboratory
T2 sequence (P41595 whole entry, species assumed): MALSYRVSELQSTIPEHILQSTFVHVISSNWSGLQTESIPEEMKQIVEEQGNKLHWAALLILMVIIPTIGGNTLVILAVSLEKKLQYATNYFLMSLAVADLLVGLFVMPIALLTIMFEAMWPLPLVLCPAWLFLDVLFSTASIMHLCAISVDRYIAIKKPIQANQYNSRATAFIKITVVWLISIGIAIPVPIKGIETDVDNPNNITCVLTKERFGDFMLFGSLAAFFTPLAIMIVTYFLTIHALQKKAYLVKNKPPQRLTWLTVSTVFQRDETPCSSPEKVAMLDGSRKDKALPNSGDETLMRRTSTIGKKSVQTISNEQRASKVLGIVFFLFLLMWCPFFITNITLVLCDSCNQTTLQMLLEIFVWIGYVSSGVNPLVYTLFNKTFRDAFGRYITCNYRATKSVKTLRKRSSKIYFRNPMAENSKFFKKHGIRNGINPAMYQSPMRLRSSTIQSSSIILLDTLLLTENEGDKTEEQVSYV

OPRD1 = target: T3, OPRD1 (Homo sapiens, UniProt P41143); test: GPCR calcium flux assay; type: cell-based; conditions: read-out: Known agonists EC50
T3 construct: Pharmaron (Beijing, China), contract laboratory
T3 sequence (P41143 whole entry, species assumed): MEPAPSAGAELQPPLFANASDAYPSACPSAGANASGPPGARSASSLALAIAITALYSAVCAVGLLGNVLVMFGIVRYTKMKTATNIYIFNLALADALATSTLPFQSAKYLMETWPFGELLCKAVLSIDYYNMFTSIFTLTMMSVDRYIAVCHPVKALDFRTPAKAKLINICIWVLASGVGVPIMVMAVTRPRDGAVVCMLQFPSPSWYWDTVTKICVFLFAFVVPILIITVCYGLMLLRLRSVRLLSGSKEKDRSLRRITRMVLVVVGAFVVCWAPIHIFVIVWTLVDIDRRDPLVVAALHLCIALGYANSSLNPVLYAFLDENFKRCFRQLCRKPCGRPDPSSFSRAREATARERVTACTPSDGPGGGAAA

BB1 = target: T4, BB1 (Homo sapiens, UniProt P28336); test: GPCR calcium flux assay; type: cell-based; conditions: read-out: Known agonists EC50
T4 construct: Pharmaron (Beijing, China), contract laboratory
T4 sequence (P28336 whole entry): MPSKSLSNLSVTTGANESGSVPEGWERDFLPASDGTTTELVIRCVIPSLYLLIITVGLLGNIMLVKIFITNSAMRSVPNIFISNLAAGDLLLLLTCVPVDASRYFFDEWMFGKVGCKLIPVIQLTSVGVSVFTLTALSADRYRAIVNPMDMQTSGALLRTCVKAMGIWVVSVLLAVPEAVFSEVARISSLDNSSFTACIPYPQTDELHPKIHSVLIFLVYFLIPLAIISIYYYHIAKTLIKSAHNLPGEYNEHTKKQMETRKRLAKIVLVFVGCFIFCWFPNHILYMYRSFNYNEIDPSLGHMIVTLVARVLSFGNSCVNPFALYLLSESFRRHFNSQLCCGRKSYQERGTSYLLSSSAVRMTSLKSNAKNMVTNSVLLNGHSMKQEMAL

CB2 = CB2 (Homo sapiens, UniProt P34972); test: LANCE Ultra cAMP assay; conditions: read-out: IC50 (known antagonists, TP-16); CB2
CB2, sequence (P34972 whole entry, species assumed): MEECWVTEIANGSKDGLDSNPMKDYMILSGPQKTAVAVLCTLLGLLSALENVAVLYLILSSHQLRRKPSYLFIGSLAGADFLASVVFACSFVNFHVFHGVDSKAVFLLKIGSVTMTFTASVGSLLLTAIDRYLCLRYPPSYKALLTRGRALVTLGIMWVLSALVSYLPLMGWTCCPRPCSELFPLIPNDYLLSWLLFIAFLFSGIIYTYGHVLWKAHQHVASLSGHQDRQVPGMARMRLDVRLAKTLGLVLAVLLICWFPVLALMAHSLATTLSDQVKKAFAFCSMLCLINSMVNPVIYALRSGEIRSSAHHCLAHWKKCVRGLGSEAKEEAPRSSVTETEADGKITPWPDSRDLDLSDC

HTR1B, sequence (P28222 whole entry): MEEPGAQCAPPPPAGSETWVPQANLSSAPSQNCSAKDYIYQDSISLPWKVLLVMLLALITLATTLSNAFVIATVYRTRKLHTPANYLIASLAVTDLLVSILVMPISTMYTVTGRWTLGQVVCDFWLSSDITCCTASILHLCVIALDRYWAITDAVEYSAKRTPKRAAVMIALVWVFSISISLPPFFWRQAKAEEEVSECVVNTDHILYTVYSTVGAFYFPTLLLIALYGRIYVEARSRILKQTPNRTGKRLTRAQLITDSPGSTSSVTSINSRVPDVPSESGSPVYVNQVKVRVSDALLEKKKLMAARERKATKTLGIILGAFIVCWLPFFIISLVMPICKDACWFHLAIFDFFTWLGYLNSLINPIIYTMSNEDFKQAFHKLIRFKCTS
T1 sequence (P30556 whole entry): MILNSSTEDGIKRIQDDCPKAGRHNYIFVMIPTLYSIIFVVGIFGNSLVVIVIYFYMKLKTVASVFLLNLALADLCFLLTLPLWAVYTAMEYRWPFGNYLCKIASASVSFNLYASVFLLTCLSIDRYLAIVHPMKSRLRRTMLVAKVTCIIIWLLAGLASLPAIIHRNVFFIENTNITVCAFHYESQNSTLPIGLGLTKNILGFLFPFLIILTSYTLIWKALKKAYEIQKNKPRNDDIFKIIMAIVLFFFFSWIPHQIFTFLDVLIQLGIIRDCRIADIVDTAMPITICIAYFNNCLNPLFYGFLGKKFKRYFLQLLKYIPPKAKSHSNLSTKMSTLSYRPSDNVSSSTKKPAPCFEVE

## COc1ccc2[nH]cc(C3=CCNCC3)c2c1 [RU24969]
HTR1B
  EC50: 18 nM

## DRVYVHPF [Angiotensin II 5-valine]
AT1
  EC50: 0.2 nM

## Cc1nc2sccn2c(=O)c1CCN1CCC(=C(c2ccc(F)cc2)c2ccc(F)cc2)CC1 [Ritanserin, reference compound]
HTR2B
  IC50: 30.8 nM

## CCN(CC)C(=O)c1ccc(C2=CC3(CCNCC3)Oc3cccc(O)c32)cc1 [ADL-5859, reference compound]
OPRD1
  EC50: 266 nM

## CN(C)CCCc1cc(C(=O)Nc2ccc(-c3ccncc3)cc2)ccc1O [GR 55562 dihydrochloride]
HTR1B; read-out: IC50 (known antagonists, TP-16), HTR1B
  IC50: 35 nM

## CSCC[C@H](NC(=O)[C@H](Cc1ccccc1)NC(=O)[C@H](Cc1c[nH]cn1)NC(=O)CNC(=O)[C@@H](NC(=O)[C@H](C)NC(=O)[C@H](Cc1c[nH]c2ccccc12)NC(=O)[C@H](CC(C)C)NC(=O)[C@H](CC(N)=O)NC(=O)CN)[C@@H](C)O)C(N)=O [Neuromedin B, reference compound]
BB1
  EC50: 0.2 nM

## COc1ccc(C(=O)c2c(C)n(CCN3CCOCC3)c3cc(I)ccc23)cc1 [AM630, reference compound]
CB2
  IC50: 260 nM

From PMC7799360, “Reprogramming immunosuppressive myeloid cells facilitates immunotherapy for colorectal cancer” (EMBO Molecular Medicine, 2020)
